Measured values as given in ChEMBL document CHEMBL1132102, “Dysidiolide and related gamma-hydroxy butenolide compounds as inhibitors of the protein tyrosine phosphatase, CDC25” (Bioorg Med Chem Lett, 1999).

Experiments:
[1] = biological target: T1, M-phase inducer phosphatase 2 (Homo sapiens, UniProt P30305); assay: In vitro inhibitory activity against human Cell division cycle 25B
T1 sequence (P30305 whole entry): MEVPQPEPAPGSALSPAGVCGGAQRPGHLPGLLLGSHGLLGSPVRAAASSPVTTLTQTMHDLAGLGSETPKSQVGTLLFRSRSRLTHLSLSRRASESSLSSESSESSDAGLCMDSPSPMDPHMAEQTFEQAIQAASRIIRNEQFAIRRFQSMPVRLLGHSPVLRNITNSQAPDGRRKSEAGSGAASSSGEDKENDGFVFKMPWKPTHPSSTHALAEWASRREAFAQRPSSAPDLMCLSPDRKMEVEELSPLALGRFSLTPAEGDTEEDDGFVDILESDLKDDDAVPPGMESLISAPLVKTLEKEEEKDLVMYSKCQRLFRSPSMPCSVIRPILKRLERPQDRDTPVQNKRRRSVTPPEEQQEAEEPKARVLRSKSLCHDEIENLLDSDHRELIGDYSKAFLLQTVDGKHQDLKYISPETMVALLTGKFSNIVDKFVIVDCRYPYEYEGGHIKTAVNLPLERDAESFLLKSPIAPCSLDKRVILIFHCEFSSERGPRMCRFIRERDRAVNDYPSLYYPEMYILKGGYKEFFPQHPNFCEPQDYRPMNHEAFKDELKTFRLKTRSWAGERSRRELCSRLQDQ

[2] = biological target: T2, M-phase inducer phosphatase 3 (Homo sapiens, UniProt P30307); assay: In vitro inhibitory activity against human Cell division cycle 25 degree C
T2 sequence (P30307 whole entry): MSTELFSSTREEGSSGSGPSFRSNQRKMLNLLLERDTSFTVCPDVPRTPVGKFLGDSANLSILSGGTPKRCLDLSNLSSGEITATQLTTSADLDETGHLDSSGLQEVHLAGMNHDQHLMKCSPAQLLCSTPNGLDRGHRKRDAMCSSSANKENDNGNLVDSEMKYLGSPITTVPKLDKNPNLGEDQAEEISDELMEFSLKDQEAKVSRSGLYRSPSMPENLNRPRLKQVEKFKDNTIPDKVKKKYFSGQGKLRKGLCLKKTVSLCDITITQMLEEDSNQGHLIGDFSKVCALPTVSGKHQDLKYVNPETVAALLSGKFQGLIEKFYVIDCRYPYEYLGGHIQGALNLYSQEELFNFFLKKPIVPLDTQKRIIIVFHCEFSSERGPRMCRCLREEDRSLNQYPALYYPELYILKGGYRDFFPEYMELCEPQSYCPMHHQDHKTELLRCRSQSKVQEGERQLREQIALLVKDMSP

## C=C(C)CCC[C@@]1(C)CCC[C@@]2(C)C1=CC[C@H](C)[C@]2(C)C[C@@H](O)C1=CC(=O)O[C@@H]1O (stereo in doubt; form 2)
[1]
  IC50: > 2000 µM
[2]
  IC50: > 2000 µM
